Measurements taken from patent US9420781B1, “Agrochemical adjuvant concentrate for herbicides” (LAMBERTI SpA, priority 2015, dated 2016).

Experiments:
Experiment in all cases: Herbicidal Effectiveness Test
Type in all cases: in vivo
Conditions in all cases: tank mix with Roundup PM 11 fl oz/a, Clarity 6 fl oz/a
[1] = test system: AMASS Amaranth
Procedure: (§1) 4 diluted sprayable herbicide tank mixes were prepared using water with an hardness of 1000 ppm, 0.25% v/v of NIS and the adjuvant concentrates of Example 1 and 3-5.
(§2) For comparative purpose, two other diluted herbicide sprayable tank mixes with two different adjuvants, AMS and DPK 50, were prepared.
(§3) The formulations contained, as herbicides, Roundup® PM for an application rate of 11 fl oz/a (803 ml/h) and Clarity® for an application rate of 6 fl oz/a (438 ml/h).
(§4) The formulation were applied on a multispecies system.
(§5) The herbicidal performances were evaluated by awarding scores to the treated plants in comparison to untreated control plants. The evaluation scale ranges from 0% to 100% herbicidal activity. 100% activity means the complete death at least of those parts of the plant that are above ground.
(§6) The results 14 and 28 days after the treatment are reported in the following Table 3 and Table 4 respectively.

[2] = test system: HELSS Sunflower
Procedure: as §1, §2, §3, §4, §5, §6

[3] = test system: LIUSS Flax
Procedure: as §1, §2, §3, §4, §5, §6

[4] = test system: ZEAMX Corn
Procedure: as §1, §2, §3, §4, §5, §6

[5] = 14 days after treatment, adjuvant 8.5 lb/100 gal, 0.25% v/v NIS, water hardness 1000 ppm
[6] = 14 days after treatment, adjuvant 17 lb/100 gal, 0.25% v/v NIS, water hardness 1000 ppm
[7] = 28 days after treatment, adjuvant 8.5 lb/100 gal
[8] = 28 days after treatment, adjuvant 17 lb/100 gal

N.N.O=S(=O)(O)O [AMS, ammonium sulfate]
herbicidal activity, Amaranth [1, 5]: 75.3%
herbicidal activity, Amaranth [1, 6]: 91%
herbicidal activity, Amaranth [1, 7]: 79.3%
herbicidal activity, Amaranth [1, 8]: 96%
herbicidal activity, Sunflower [2, 5]: 81%
herbicidal activity, Sunflower [2, 6]: 94.3%
herbicidal activity, Sunflower [2, 7]: 91.7%
herbicidal activity, Sunflower [2, 8]: 95%
herbicidal activity, Flax [3, 5]: 74.3%
herbicidal activity, Flax [3, 6]: 88.3%
herbicidal activity, Flax [3, 7]: 76%
herbicidal activity, Flax [3, 8]: 90%
herbicidal activity, Corn [4, 5]: 95%
herbicidal activity, Corn [4, 6]: 96.3%
herbicidal activity, Corn [4, 7]: 95%
herbicidal activity, Corn [4, 8]: 97%
